Experimental data published in ChEMBL document CHEMBL1149212, “Synthesis and biological evaluation of imidazole-based small molecule antagonists of the melanocortin 4 receptor (MC4-R)” (Bioorg Med Chem Lett, 2004).

Columns and labels:
[1] = system: HEK293; assay: Ability to decrease the intracellular cAMP levels induced by 1 nM NDP-MSH in HEK293/ hMC4 cells.; format: functional, cell-based; settings: Homo sapiens
[2] = target: Melanocortin receptor 4 (Homo sapiens, UniProt P32245); assay: In vitro binding affinity towards melanocortin 4 receptor.
Sequence of Melanocortin receptor 4 (P32245 whole entry): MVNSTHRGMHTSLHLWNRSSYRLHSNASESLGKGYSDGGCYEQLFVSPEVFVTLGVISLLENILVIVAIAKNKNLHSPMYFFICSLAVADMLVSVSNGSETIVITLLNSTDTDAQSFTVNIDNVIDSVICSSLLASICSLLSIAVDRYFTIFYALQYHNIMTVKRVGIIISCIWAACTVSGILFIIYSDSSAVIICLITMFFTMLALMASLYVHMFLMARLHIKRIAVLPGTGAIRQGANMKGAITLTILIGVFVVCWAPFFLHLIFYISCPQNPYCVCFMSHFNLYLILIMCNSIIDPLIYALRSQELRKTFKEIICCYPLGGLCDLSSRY

[3] = AUC was determined; format: ADME; settings: plasma
[4] = Cmax in rat at the dose of 1 mg/kg i.v.; format: ADME, organism-based; design: dose 1 mg/kg, route intravenous; settings: in vivo, iv
[5] = Plasma clearance was determined; format: ADME, organism-based; settings: rat
[6] = Cmax in rat; format: ADME, organism-based; settings: in vivo
[7] = Plasma clearance in rat p.o.; format: ADME, organism-based; settings: po
[8] = AUC in rat p.o.; format: ADME, organism-based; settings: plasma, po

Row | Ki [2] | Compound | IC50 [1] | other results
1 | 140 nM | COc1ccc(Br)cc1CCc1ccccc1-c1nc(C)c(C)n1C | 200 nM | –
2 | 1500 nM | COc1ccc(Br)cc1CCc1c(Cl)cccc1-c1ncc[nH]1 | 580 nM | –
3 | 180 nM | COc1ccc(Br)cc1CCc1c(Cl)cccc1-c1ncc2n1CCC2 | 710 nM | –
4 | 620 nM | COc1ccc(Br)cc1CCc1c(F)cccc1-c1ncc2n1CCCC2 | 480 nM | –
5 | 2500 nM | CCC(C)n1ccnc1-c1cccc(Cl)c1CCc1cc(Br)ccc1OC (configuration not stated) | 2100 nM | –
6 | 670 nM | COc1ccc(Br)cc1CCc1c(Cl)cccc1-c1nccn1C(C)C | 1400 nM | –
7 | 270 nM | COc1ccc(Br)cc1CCc1ccccc1-c1nc(C)cn1C | 240 nM | –
8 | 320 nM | CCc1cnc(-c2ccccc2CCc2cc(Br)ccc2OC)n1C | 170 nM | –
9 | 690 nM | CCc1cn(C)c(-c2ccccc2CCc2cc(Br)ccc2OC)n1 | 820 nM | –
10 | 1300 nM | CCCn1ccnc1-c1cccc(Cl)c1CCc1cc(Br)ccc1OC | 1900 nM | –
11 | 320 nM | COc1ccc(Br)cc1CCc1c(F)cccc1-c1ncc2n1CCC2 | 390 nM | –
12 | – | COc1ccc(Br)cc1CCc1c(F)cccc1C1=NCCN1 | – | AUC [3]: 0.204 µM·h; Cmax [4]: 0.031 µM; clearance [5]: 222 mL/min/kg
13 | 180 nM | COc1ccc(Br)cc1CCc1ccccc1-c1ncc(C)n1C | 51 nM | –
14 | 9300 nM | Cn1ccnc1-c1cccc(Cl)c1CCc1cc(Br)ccc1O | 10200 nM | –
15 | 340 nM | COc1ccc(Br)cc1CCc1c(Cl)cccc1-c1ncc2n1CCCC2 | 590 nM | Cmax [6]: 6.45 µM; CL/F [7]: 18.3 mL/min/kg; AUC [8]: 2 µM·h
16 | 2000 nM | COc1ccc(Br)cc1CCc1c(Cl)cccc1-c1nccn1CC1CC1 | 1700 nM | –
17 | 300 nM | COc1ccc(Br)cc1CCc1c(Cl)cccc1-c1nccn1C | 1100 nM | –
18 | 310 nM | CCn1ccnc1-c1cccc(Cl)c1CCc1cc(Br)ccc1OC | 1800 nM | –
19 | 1600 nM | COc1ccc(Br)cc1CCc1ccccc1-c1nc(C(C)C)cn1C | 1200 nM | –
